Experimental data as given in publication PMC7026418, “The kinase polypharmacology landscape of clinical PARP inhibitors” (Scientific Reports, 2020).
Like-named read-outs stand apart in the source and are kept apart here.

Key:
Assay in all cases: biochemical
Design in all cases: DiscoveRx KINOMEscan active site-directed competition binding; percent of control kinase bound to immobilised ligand
[1] = target: STK35 (Homo sapiens, UniProt Q8TDR2)
[2] = target: T1, DCAMKL3 (Homo sapiens, UniProt Q9C098)
T1 construct: gene DCLK3
T1 sequence (Q9C098 1-648): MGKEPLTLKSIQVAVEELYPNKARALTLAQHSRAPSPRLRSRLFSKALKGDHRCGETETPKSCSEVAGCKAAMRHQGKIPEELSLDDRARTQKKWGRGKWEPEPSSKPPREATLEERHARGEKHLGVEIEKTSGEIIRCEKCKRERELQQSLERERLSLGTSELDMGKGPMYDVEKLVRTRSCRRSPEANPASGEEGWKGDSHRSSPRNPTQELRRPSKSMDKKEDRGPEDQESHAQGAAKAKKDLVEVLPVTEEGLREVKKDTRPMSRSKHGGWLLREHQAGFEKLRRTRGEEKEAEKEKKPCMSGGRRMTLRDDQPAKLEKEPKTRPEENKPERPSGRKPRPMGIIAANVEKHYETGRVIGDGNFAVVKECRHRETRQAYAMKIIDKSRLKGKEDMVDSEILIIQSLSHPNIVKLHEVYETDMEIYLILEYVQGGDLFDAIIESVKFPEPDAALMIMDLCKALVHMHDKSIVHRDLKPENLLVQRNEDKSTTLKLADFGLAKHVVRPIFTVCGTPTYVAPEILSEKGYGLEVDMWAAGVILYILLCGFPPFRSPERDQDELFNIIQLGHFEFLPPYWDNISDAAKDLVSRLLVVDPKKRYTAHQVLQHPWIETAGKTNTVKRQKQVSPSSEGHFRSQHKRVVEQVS

[3] = target: CDK2 (Homo sapiens, UniProt P24941)
[4] = target: T2, PRKCE (Homo sapiens, UniProt Q02156)
T2 sequence (Q02156 1-737): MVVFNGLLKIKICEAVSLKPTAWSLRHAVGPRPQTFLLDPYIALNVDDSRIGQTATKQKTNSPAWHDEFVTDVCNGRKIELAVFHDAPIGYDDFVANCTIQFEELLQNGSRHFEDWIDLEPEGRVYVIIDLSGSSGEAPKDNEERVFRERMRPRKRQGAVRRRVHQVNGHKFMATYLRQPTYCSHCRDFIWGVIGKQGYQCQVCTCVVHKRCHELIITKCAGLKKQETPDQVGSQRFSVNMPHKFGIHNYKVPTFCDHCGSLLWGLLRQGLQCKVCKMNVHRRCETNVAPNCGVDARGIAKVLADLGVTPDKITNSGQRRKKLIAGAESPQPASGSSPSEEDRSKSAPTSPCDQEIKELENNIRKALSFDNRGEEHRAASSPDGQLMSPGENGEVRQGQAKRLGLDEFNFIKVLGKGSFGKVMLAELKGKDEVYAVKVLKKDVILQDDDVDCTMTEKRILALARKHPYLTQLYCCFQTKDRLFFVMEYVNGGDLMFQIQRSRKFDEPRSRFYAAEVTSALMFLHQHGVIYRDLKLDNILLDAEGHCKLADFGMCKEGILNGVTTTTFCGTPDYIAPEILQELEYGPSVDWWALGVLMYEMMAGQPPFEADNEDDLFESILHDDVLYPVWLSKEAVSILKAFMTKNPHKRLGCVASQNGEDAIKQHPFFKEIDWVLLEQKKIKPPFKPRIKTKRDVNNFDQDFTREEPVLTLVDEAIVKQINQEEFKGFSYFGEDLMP

[5] = target: T3, CSNK1A1L (Homo sapiens, UniProt Q8N752)
T3 sequence (Q8N752 1-337): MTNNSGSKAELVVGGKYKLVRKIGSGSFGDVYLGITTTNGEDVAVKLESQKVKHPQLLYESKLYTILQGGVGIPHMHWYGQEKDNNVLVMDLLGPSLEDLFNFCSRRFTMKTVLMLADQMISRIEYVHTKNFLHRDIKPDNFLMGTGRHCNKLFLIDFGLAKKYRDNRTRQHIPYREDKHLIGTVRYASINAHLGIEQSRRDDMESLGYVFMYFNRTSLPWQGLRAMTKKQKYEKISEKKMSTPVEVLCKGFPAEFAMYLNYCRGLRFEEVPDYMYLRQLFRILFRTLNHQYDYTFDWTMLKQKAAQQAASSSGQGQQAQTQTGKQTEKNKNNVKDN

[6] = target: T4, MLCK (Homo sapiens, UniProt Q32MK0)
T4 construct: gene MYLK3
T4 sequence (Q32MK0 1-819): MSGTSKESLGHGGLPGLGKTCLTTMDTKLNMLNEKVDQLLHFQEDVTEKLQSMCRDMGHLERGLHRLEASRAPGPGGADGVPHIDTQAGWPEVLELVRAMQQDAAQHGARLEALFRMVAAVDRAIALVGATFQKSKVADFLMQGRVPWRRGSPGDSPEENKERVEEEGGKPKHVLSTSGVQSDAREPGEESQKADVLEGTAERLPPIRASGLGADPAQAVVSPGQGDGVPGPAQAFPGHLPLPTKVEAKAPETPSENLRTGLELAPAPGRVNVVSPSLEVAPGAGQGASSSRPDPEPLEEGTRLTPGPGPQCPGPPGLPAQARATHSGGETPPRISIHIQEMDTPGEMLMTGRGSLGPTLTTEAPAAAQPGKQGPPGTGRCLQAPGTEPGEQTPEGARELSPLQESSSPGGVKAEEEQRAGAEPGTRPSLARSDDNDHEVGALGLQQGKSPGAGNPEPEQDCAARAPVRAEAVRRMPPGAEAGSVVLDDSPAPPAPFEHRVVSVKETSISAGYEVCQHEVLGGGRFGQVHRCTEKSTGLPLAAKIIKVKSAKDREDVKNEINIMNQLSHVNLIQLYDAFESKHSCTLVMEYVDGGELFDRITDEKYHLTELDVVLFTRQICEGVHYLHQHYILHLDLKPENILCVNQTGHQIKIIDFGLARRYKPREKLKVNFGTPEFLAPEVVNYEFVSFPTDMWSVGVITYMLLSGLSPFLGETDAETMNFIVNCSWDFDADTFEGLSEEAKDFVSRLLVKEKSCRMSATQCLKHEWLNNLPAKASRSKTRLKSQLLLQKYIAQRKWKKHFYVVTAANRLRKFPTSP

[7] = read-out: Niraparib (MK-4827) / %Ctrl @ 10000nM
[8] = read-out: Olaparib / %Ctrl @ 10000nM
[9] = read-out: Rucaparib / %Ctrl @ 10000nM, binding competition, % of control
[10] = read-out: Talazoparib (BMN 673) / %Ctrl @ 10000nM

Sequence of STK35 (Q8TDR2 whole entry): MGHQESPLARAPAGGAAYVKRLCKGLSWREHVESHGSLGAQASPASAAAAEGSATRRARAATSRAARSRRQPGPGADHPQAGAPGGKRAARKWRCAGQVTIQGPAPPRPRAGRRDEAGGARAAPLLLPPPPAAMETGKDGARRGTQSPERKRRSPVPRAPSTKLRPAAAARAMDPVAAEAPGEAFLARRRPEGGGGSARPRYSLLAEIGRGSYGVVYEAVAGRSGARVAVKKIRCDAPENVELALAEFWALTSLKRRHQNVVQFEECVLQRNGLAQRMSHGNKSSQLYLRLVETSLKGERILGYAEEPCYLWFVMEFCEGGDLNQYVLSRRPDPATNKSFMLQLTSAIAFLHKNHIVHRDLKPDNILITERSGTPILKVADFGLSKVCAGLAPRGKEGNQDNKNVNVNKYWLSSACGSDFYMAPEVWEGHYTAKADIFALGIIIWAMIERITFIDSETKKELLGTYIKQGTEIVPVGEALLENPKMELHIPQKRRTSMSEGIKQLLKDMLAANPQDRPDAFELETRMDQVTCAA

## NC(=O)c1cccc2cn(-c3ccc([C@@H]4CCCNC4)cc3)nc12 [Niraparib]
[1]; [7]
  percent of control binding at 10 µM: 92%
[2]; [7]
  percent of control binding at 10 µM: 85%
[3]; [7]
  percent of control binding at 10 µM: 100%
[4]; [7]
  percent of control binding at 10 µM: 100%
[5]; [7]
  percent of control binding at 10 µM: 76%
[6]; [7]
  percent of control binding at 10 µM: 92%

## O=C(c1cc(Cc2n[nH]c(=O)c3ccccc23)ccc1F)N1CCN(C(=O)C2CC2)CC1 [Olaparib]
[1]; [8]
  percent of control binding at 10 µM: 100%
[2]; [8]
  percent of control binding at 10 µM: 88%
[3]; [8]
  percent of control binding at 10 µM: 93%
[4]; [8]
  percent of control binding at 10 µM: 93%
[5]; [8]
  percent of control binding at 10 µM: 99%
[6]; [8]
  percent of control binding at 10 µM: 95%

## CNCc1ccc(-c2[nH]c3cc(F)cc4c3c2CCNC4=O)cc1 [Rucaparib]
[1]; [9]
  percent of control binding at 10 µM: 92%
[2]; [9]
  percent of control binding at 10 µM: 44%
[3]; [9]
  percent of control binding at 10 µM: 98%
[4]; [9]
  percent of control binding at 10 µM: 74%
[5]; [9]
  percent of control binding at 10 µM: 86%
[6]; [9]
  percent of control binding at 10 µM: 53%

## Cn1ncnc1[C@H]1c2n[nH]c(=O)c3cc(F)cc(c23)N[C@@H]1c1ccc(F)cc1 [Talazoparib]
[1]; [10]
  percent of control binding at 10 µM: 100%
[2]; [10]
  percent of control binding at 10 µM: 100%
[3]; [10]
  percent of control binding at 10 µM: 96%
[4]; [10]
  percent of control binding at 10 µM: 93%
[5]; [10]
  percent of control binding at 10 µM: 100%
[6]; [10]
  percent of control binding at 10 µM: 98%
